The text below walks through data of EP0451772A1, “Piperidine compounds, method for preparation thereof, and a pharamceutical composition comprising the same” (HOKURIKU PHARMACEUTICAL CO., LTD., priority 1990, dated 1991).

Counter-ions that a name gives are not always drawn. Like-named read-outs stand apart in the source and are kept apart here.

In data set [1] the test system is hexobarbital-induced anesthesia in mice. Set-up: species or system male ddY mice. Conditions: mouse, in vivo. The text has this:
(§1) The results of 48 hr homologous passive cutaneous anaphylaxis (PCA) in rats with the monitoring of antiallergic activity and the results of potentiation of hexobarbital-induced anesthesia in mice with the monitoring of central nervous depressive activity are summarized in Table 1. The following compound was used as the reference compound. Reference compound : Ketotifen-Fumarate
The loss of righting reflex induced by hexobarbital was used as an index of anesthesia. Groups of eight male ddY mice (20-24 hr fasted) weighing 19 to 27 g were treated orally with the test compounds (30 mg/kg) or vehicle. Thirty min later, 80 mg/kg of hexobarbital sodium were injected i.p. to the animals and the duration of loss of righting reflex was observed.

The subject of data set [2] is passive cutaneous anaphylaxis (PCA) in rats. The experiment in a line: 48 hr homologous passive cutaneous anaphylaxis (PCA) in rats. In kind it is in vivo, Male Wistar rats. Particulars: Rattus norvegicus, po, read-out: the percent inhibition of PCA in rats. As to the method:
as §1
Ascaris extract coupled with 2, 4-dinitrophenyl group (DNP-As) was prepared by the method of Koda et al. (Folia pharmacol. japon., 78, 319-334, 1981) and anti-DNP-As containing IgE antibody serum was prepared by the method of Tada and Okumura (J. Immunol., 106, 1019-1025, 1971). The PCA titer of the antiserum was estimated to be 1:128 by 48 hr PCA in rats.
Male Wistar rats weighing 160 to 200 g were sensitized passively by intradermal injection, in the back, of 0.05 ml of anti-DNP-As serum diluted 21-fold with saline. After 48 hr, the animals (18-20 hr fasted) were given iv. 0.5 ml of 1% Evans blue solution containing 1 mg of DNP-As. After an additional 30 min, the animals were killed by stunning and the skins were removed. The intensity of the response was evaluated by assaying the amount of dye leaked according to the method of Katayama et al. (Microbiol. Immunol., 22, 89-101, 1978). The percent inhibition of PCA was calculated using the following formula: [formula]
Test compounds were given orally in a dose of 1 mg/kg 1 hr prior to challenge with antigen. As a control, 5 ml/kg of vehicle (0.5 % CMC) alone were given in a similar manner.

The mark [3] stands for this setting: 1 mg/kg, p.o., 1 hr prior to challenge with antigen, amount of dye leaked.

On to `Cl.O=C(O)CCN1CCC(=C2c3ccccc3CC(=O)c3sccc32)CC1` [Example 5, 4-(4,9-Dihydro-10-oxo-10H-benzo[4,5]cyclohepta[1,2-b]thiophen-4-ylidene)-1-piperidinepropionic Acid Hydrochloride], for which, in data set [1], the “the percent increase of hexobarbital-induced anesthesia in mice” value (from here on “the percent increase”) is recorded as 24%. Moreover, the inhibition in vivo at 1 mg/kg in data set [2] (setting [3]) was found to be 75%.
On the same counts, the results for `Cl.O=C(O)CCCN1CCC(=C2c3ccccc3CC(=O)c3sccc32)CC1` [Example 6, 4-(4,9-Dihydro-10-oxo-10H-benzo[4,5]cyclohepta[1,2-b]thiophen-4-ylidene)-1-piperidinebutyric Acid Hydrochloride] are 26% and 77%.
On the same counts, the results for `Cl.O=C(O)CCCCN1CCC(=C2c3ccccc3CC(=O)c3sccc32)CC1` [Example 8, 4-(4,9-Dihydro-10-oxo-10H-benzo[4,5]cyclohepta[1,2-b]thiophen-4-ylidene)-1-piperidinevaleric Acid Hydrochloride] are 27% and 71%.
On the same counts, the results for `O=C(O)CCN1CCC(=C2c3ccccc3CSc3ccccc32)CC1` [Example 10, 4-(Dibenzo[b,e]thiepin-11(6H)-ylidene)-1-piperidinepropionic Acid Hydrochloride] are 19% and 69%.
As for `O=C(O)CCCN1CCC(=C2c3ccccc3CSc3ccccc32)CC1` [Example 13, 4-(Dibenzo[b,e]thiepin-11(6H)-ylidene)-1-piperidinebutyric Acid Hydrochloride], in data set [1], the “the percent increase” value was 30%. Further, the inhibition in vivo at 1 mg/kg in data set [2] (setting [3]) worked out at 58%.
In the same order, the values of `Cl.O=C(O)CCCCN1CCC(=C2c3ccccc3CSc3ccccc32)CC1` [Example 14, 4-(Dibenzo[b,e]thiepin-11(6H)-ylidene)-1-piperidinevaleric Acid Hydrochloride] are 19% and 63%.
On the same counts, the results for `Cl.O=C(O)CCCCCN1CCC(=C2c3ccccc3CSc3ccccc32)CC1` [Example 15, 4-(Dibenzo[b,e]thiepin-11(6H)-ylidene)-1-piperidinecaproic Acid Hydrochloride] are 33% and 57%.
For `O=C(O)CCN1CCC(=C2c3ccccc3Sc3ccccc32)CC1` [Example 18, 4-(9H-Thioxanthen-9-ylidene)-1-piperidinepropionic Acid], the “the percent increase” value in data set [1] stood at 49%. Besides, in data set [2] (setting [3]), the inhibition in vivo at 1 mg/kg amounted to 96%.
On to `CN1CCC(=C2c3ccccc3CC(=O)c3sccc32)CC1` [Reference compound, 4,9-dihydro-4-(1-methyl-4-piperidinylidene)-10H-benzo[4,5]cyclohepta[1,2-b]thiophen-10-one, reference compound], for which the “the percent increase” value in data set [1] is recorded as 90%. For the same compound, the inhibition in vivo at 1 mg/kg in data set [2] was 56%.
